Reference: US10675360B2 (MADRIGAL PHARMACEUTICALS, INC., priority 2014, dated 2020)
pIC50: −log10 of the molar value. Read-outs that look alike come from different tables or passages of the source. Values belong to the molecule of their own block, whether it stands above or below them.

Legend:
[1] = Stability in cell culture media; conditions: § not explained
[2] = Stability in mouse plasma; format: in vitro ADME; conditions: for % Remaining: 1 h
H 3211 NSLC cells = assay: IC50 of continuous and pulsed exposure to SDC-TRAPs; format: cell-based
[3] = Tissue distribution of ganetespib in female CD-1 nu/nu mice bearing RERF human NSCLC xenografts; format: in vivo, mouse; conditions: ganetespib 50 mg/kg IV
Protocol: To confirm the distribution of ganetespib in blood, livers, kidneys, brains, hearts, lungs and tumors after IV administration of ganetespib to female CD-1 nu/nu mice bearing RERF human NSCLC xenografts, and to examine metabolic profiles of ganetespib in plasma, red blood cells, and above tissues.
Animals: female CD-1 nu/nu mice bearing RERF human NSCLC xenografts (N=3/group)
Formulation: 10% DMSO, 18% Cremophor RH40, 3.6% dextrose solution (DRD)
Bleeding time points: 5 min, 6, 24 hr
Collected tissues: blood (plasma and red blood cells (RBC)), liver, kidneys, brain, heart, lung, tumor
Protein precipitation: 50 μL of 10 times diluted plasma or RBC+150 μL ACN (10 mM NH4OAc), vortexed and centrifuged at 10000 rpm for 8 min; 150 μL supernatant+150 μL water (10 mM NH4OAc)
Protein precipitation: 100 μL homogenized tissue (1:3 tissue: PBS buffer)+100 μL ACN (10 mM NH4OAc), vortexed and centrifuged at 10000 rpm for 8 min

[4] = Tissue distribution of SDC-TRAPs in tumor-bearing mice (plasma, tumor, heart); conditions: mouse, in vivo; for Kp: tissue distribution of SDC-TRAP-0076, read-out: Tumor/Plasma Ratio
[5] = 1 h, read-out: IC50, 1 h-pulse/71 h-compound free, H 3211 NSLC cells, 7.5 × 10^3 cells/well, 1st of 2 columns
[6] = 1 h, read-out: IC50, 1 h-pulse/71 h-compound free, H 3211 NSLC cells, 7.5 × 10^3 cells/well, 2nd of 2 columns
[7] = 72 h, read-out: IC50, 72 h-continuous, H 3211 NSLC cells, 7.5 × 10^3 cells/well, 2nd of 3 columns

Structure (SMILES): CCc1c2c(nc3ccc(OC(=O)N4CCN(c5ccc(-n6c(O)nnc6-c6cc(C(C)C)c(O)cc6O)cc5)CC4)cc13)-c1cc3c(c(=O)n1C2)COC(=O)C3(O)CC (centres unmarked) [SDC-TRAP-0045, 4,11-diethyl-4-hydroxy-3,14-dioxo-3,4,12,14-tetrahydro-1H-pyrano[3′,4′:6,7]indolizino[1,2-b]quinolin-9-yl 4-(4-(3-(2,4-dihydroxy-5-isopropylphenyl)-5-hydroxy-4H-1,2,4-triazol-4-yl)phenyl)piperazine-1-carboxylate]
- Media (5 μM) % Remaining 1 h (37° C.) § [1]: 72%
- Mouse (10 μM) % Remaining 1 h (37° C.) § ([2]; mouse plasma, 10 μM, § not explained): 34%
- % Remaining ([2]; mouse plasma, 37° C.): 45%

Structure (SMILES): CNCCn1ccc2cc(-n3c(O)nnc3-c3cc(C(C)C)c(O)cc3O)ccc21 [SDC-TRAP-0004]
- pIC50 (H 3211 NSLC cells; read-out: IC50, 1 h-pulse/71 h-compound free, H 3211 NSLC cells, 7.5 × 10^3 cells/well, 1st of 2 columns): 6.20
- pIC50 (H 3211 NSLC cells; read-out: IC50, 1 h-pulse/71 h-compound free, H 3211 NSLC cells, 7.5 × 10^3 cells/well, 2nd of 2 columns): 5.76
- pIC50 (H 3211 NSLC cells; read-out: IC50, 72 h-continuous, H 3211 NSLC cells, 7.5 × 10^3 cells/well, 1st of 3 columns): 7.66
- pIC50 (H 3211 NSLC cells; read-out: IC50, 72 h-continuous, H 3211 NSLC cells, 7.5 × 10^3 cells/well, 2nd of 3 columns): 7.22
- pIC50 (H 3211 NSLC cells; read-out: IC50, 72 h-continuous, H 3211 NSLC cells, 7.5 × 10^3 cells/well, 3rd of 3 columns): 7.40

- Concentration in tumor ([3]; 5 min): 2.35 µM
- Concentration in plasma ([3]; 24 hr): <LLOQ
Structure (SMILES): CC(C)c1cc(-c2n[nH]c(=O)n2-c2ccc3c(ccn3C)c2)c(O)cc1O [ganetespib]
- Persistence in tumor versus plasma and other tissues ([3]; up to 24 hr): persist longer in tumor than in plasma or any other tissues studied

Structure (SMILES): CCc1c2c(nc3ccc(O)cc13)-c1cc3c(c(=O)n1C2)COC(=O)[C@]3(O)CC [SN-38]
- Plasma Conc. ([4]; 1 h): 4.34 µM
- Tumor/Plasma Ratio ([4]; 1 h): 0.11
- concentration at 1 h ([4]; Plasma Conc.): 8.6 µM
- Kp at 1 h ([4]; Tumor/Plasma Ratio): 0.07

- pIC50 (H 3211 NSLC cells; [5]): < 5.52
- pIC50 (H 3211 NSLC cells; [6]): < 5.52
- pIC50 (H 3211 NSLC cells; [7]): 5.65
Structure (SMILES): CC(C)c1cc(-c2nnc(O)n2-c2ccc3c(ccn3CCOCCNC(=O)CCCC(=O)Nc3cccc4c3CN(C3CCC(=O)NC3=O)C4=O)c2)c(O)cc1O (centres unmarked) [SDC-TRAP-0015, N1-(2-(2-(5-(3-(2,4-dihydroxy-5-isopropylphenyl)-5-hydroxy-4H-1,2,4-triazol-4-yl)-1H-indol-1-yl)ethoxy)ethyl)-N5-(2-(2,6-dioxopiperidin-3-yl)-1-oxoisoindolin-4-yl)glutaramide]

- Kp at 48 h [4]: 4.65
- % Remaining ([2]; mouse, plasma, 10 μM): 91.1%
Structure (SMILES): CC(C)c1cc(-c2nnc(O)n2-c2ccc(CC3CCN(CC(=O)Nc4cccc5c4CN(C4CCC(=O)NC4=O)C5=O)CC3)cc2)c(O)cc1O (centres unmarked) [SDC-TRAP-0116, 2-(4-(4-(3-(2,4-dihydroxy-5-isopropylphenyl)-5-hydroxy-4H-1,2,4-triazol-4-yl)benzyl)piperidin-1-yl)-N-(2-(2,6-dioxopiperidin-3-yl)-1-oxoisoindolin-4-yl) acetamide]

Structure (SMILES): CCc1c2c(nc3ccc(OCC(=O)N(C)CCOCCn4ccc5cc(-n6c(O)nnc6-c6cc(C(C)C)c(O)cc6O)ccc54)cc13)-c1cc3c(c(=O)n1C2)COC(=O)C3(O)CC (centres unmarked) [SDC-TRAP-0028, 2-((4,11-diethyl-4-hydroxy-3,14-dioxo-3,4,12,14-tetrahydro-1H-pyrano[3′,4′:6,7]indolizino[1,2-b]quinolin-9-yl)oxy)-N-(2-(2-(5-(3-(2,4-dihydroxy-5-isopropylphenyl)-5-hydroxy-4H-1,2,4-triazol-4-yl)-1H-indol-1-yl)ethoxy)ethyl)-N-methylacetamide]
- % Remaining ([2]; mouse, plasma, 10 μM): 41%
- pIC50 (H 3211 NSLC cells; [5]): < 5.52
- pIC50 (H 3211 NSLC cells; [6]): < 5.52
- pIC50 (H 3211 NSLC cells; 72 h, read-out: IC50, 72 h-continuous, H 3211 NSLC cells, 7.5 × 10^3 cells/well, 1st of 3 columns): 6.33
- pIC50 (H 3211 NSLC cells; [7]): 5.75
- pIC50 (H 3211 NSLC cells; 72 h, read-out: IC50, 72 h-continuous, H 3211 NSLC cells, 7.5 × 10^3 cells/well, 3rd of 3 columns): 6.30

Structure (SMILES): CCNC(=O)c1nnc(-c2cc(C(C)C)c(O)cc2O)n1-c1ccc(CN2CCC(C(=O)N3CCC(C(=O)OC4(CC)C(=O)OCc5c4cc4n(c5=O)Cc5c-4nc4ccc(O)cc4c5CC)CC3)CC2)cc1 (centres unmarked) [SDC-TRAP-0076, 4,11-diethyl-9-hydroxy-3,14-dioxo-3,4,12,14-tetrahydro-1H-pyrano[3′,4′:6,7]indolizino[1,2-b]quinolin-4-yl 1-(1-(4-(3-(2,4-dihydroxy-5-isopropylphenyl)-5-(ethylcarbamoyl)-4H-1,2,4-triazol-4-0)benzyl)piperidine-4-carbonyl)piperidine-4-carboxylate]
- Kp ([4]; 1 h): 0.17
- Kp ([4]; 6 h): 2.25
- Kp ([4]; 24 h): 20.4
- Kp ([4]; 48 h): 6.85
- Kp ([4]; […]): 0.01
- % Remaining ([2]; mouse plasma, 37° C.): 96%
